Assay results taken from patent publication US20190309272A1, “Genetically Modified Cell Lines Including a TP53 Modification and Methods of Use” (UNIVERSITY OF SOUTH CAROLINA, priority 2018, published 2019).
Structures can show the parent of a compound that is named as a salt. Where two headings read alike, the source gives them in different places.

Key:
Format in all cases: cell-based, Human
[1] = test system: MCF7 TP53 KO 3.4 pool; assay: Drug screening, resazurin, TP53 KO 3.4 pool
[2] = test system: MCF7 WT Parental pool; assay: Drug screening, resazurin, MCF7 wild type parental pool
[3] = test system: MCF7 TP53 KO 5.6 pool; assay: Drug screening, resazurin, TP53 KO 5.6 pool
[4] = ten-day drug treatment, 156.25 nM to 10 μM, resazurin fluorescence

Molecule | TP53 KO 3.4 pool (AUC) [1, 4] | MCF7 WT Parental pool (AUC) [2, 4] | TP53 KO 5.6 pool (AUC) [3, 4] | TP53 KO 3.4 pool (AUC) [1] | MCF7 WT Parental pool (AUC) [2] | TP53 KO 5.6 pool (AUC) [3]
O=NN(CCCl)C(=O)NC1CCCCC1 [Lomustine] | 9.629 | 9.62 | 9.491 |  |  | 
C#CCC(Cc1cnc2nc(N)nc(N)c2n1)c1ccc(C(=O)N[C@@H](CCC(=O)O)C(=O)O)cc1 (stereo partly drawn) [Pralatrexate] | 2.774 | 2.822 | 2.86 |  |  | 
CNC(=O)c1ccc(N2C(=S)N(c3ccc(C#N)c(C(F)(F)F)c3)C(=O)C2(C)C)cc1F [Enzalutamide] | 8.864 | 8.931 | 8.634 |  |  | 
Cc1ccc(Nc2nccc(N(C)c3ccc4c(C)n(C)nc4c3)n2)cc1S(N)(=O)=O [Pazopanib Hydrochloride] | 6.259 | 6.767 | 6.349 |  |  | 
CCCS(=O)(=O)Nc1ccc(F)c(C(=O)c2c[nH]c3ncc(-c4ccc(Cl)cc4)cc23)c1F [Vemurafenib] | 7.987 | 8.722 | 8.365 |  |  | 
COc1cc2nccc(Oc3ccc(NC(=O)C4(C(=O)Nc5ccc(F)cc5)CC4)cc3)c2cc1OC [Cabozantinib] | 4.376 | 4.126 | 4.52 |  |  | 
Nc1nc(Cl)nc2c1ncn2[C@@H]1O[C@H](CO)[C@@H](O)[C@@H]1F [Clofarabine] | 3.085 | 5.232 | 3.74 |  |  | 
CN(N=O)C(=O)N[C@@H](C=O)[C@@H](O)[C@H](O)[C@H](O)CO [Streptozocin] | 10.58 | 9.145 | 9.912 |  |  | 
Arsenic Trioxide | 5.242 | 5.018 | 5.373 |  |  | 
C[C@]12CC[C@@H]3c4ccc(OC(=O)N(CCCl)CCCl)cc4CC[C@H]3[C@@H]1CC[C@@H]2OP(=O)(O)O [Estramustine Phosphate Sodium] | 9.491 | 9.864 | 9.348 |  |  | 
COc1cc2c(Nc3ccc(Br)cc3F)ncnc2cc1OCC1CCN(C)CC1 [Vandetanib] | 2.831 | 2.871 | 3.022 |  |  | 
Oc1ncc(N(CCCl)CCCl)c(O)n1 [UracilMustard] |  |  |  | 9.337 | 9.331 | 9.516
CCCCC(=O)OCC(=O)[C@]1(O)Cc2c(O)c3c(c(O)c2[C@@H](O[C@H]2C[C@H](NC(=O)C(F)(F)F)[C@H](O)[C@H](C)O2)C1)C(=O)c1c(OC)cccc1C3=O [Valrubicin] | 1.25 | 1.194 | 1.05 |  |  | 
Nc1cccc2c1C(=O)N(C1CCC(=O)NC1=O)C2=O (stereo not drawn) [Pomalidomide] | 9.902 | 10.08 | 10.13 |  |  | 
Cc1nc(Nc2ncc(C(=O)Nc3c(C)cccc3Cl)s2)cc(N2CCN(CCO)CC2)n1 [Dasatinib] | 4.014 | 4.282 | 4.43 |  |  | 
N.N.[Cl][Pt][Cl] [Cisplatin] | 6.27 | 7.335 | 7.44 |  |  | 
NCC(=O)CCC(=O)O [Aminolevulinic Acid] | 9.101 | 8.749 | 8.787 |  |  | 
C[C@@H](Oc1cc(-c2cnn(C3CCNCC3)c2)cnc1N)c1c(Cl)ccc(F)c1Cl [Crizotinib] | 2.325 | 2.549 | 2.941 |  |  | 
COc1cc2ncnc(Nc3ccc(F)c(Cl)c3)c2cc1OCCCN1CCOCC1 [Gefintinib] | 7.676 | 8.974 | 8.242 |  |  | 
S=P(N1CC1)(N1CC1)N1CC1 [Thiotepa] |  |  |  | 5.443 | 3.965 | 5.535
CC[C@]1(O)C[C@@H]2CN(CCc3c([nH]c4ccccc34)[C@@](C(=O)OC)(c3cc4c(cc3OC)N(C)[C@H]3[C@@](O)(C(=O)OC)[C@H](OC(C)=O)[C@]5(CC)C=CCN6CC[C@]43[C@@H]65)C2)C1 [Vinblastine Sulfate] | 1.54 | 1.393 | 1.382 |  |  | 
O=C(CCCCCCC(=O)Nc1ccccc1)NO [Vorinostat] | 2.202 | 2.073 | 2.114 |  |  | 
CO[C@H]1C(=O)[C@]2(C)[C@@H](OC)C[C@H]3OC[C@@]3(OC(C)=O)[C@H]2[C@H](OC(=O)c2ccccc2)[C@]2(O)C[C@H](OC(=O)[C@H](O)[C@@H](NC(=O)OC(C)(C)C)c3ccccc3)C(C)=C1C2(C)C [Cabazitaxel] | 1.658 | 1.406 | 1.713 |  |  | 
O=P1(N(CCCl)CCCl)NCCCO1 (stereo not drawn) [Cyclophosphamide] |  |  |  | 15.2 | 16.16 | 16.92
O=C(c1cc(Cc2n[nH]c(=O)c3ccccc23)ccc1F)N1CCN(C(=O)C2CC2)CC1 [Olaparib] | 8.58 | 5.48 | 7.433 |  |  | 
COc1c2occc2cc2ccc(=O)oc12 [Methoxsalen] | 10.56 | 8.476 | 10.48 |  |  | 
CCN(CC)CCNC(=O)c1c(C)[nH]c(/C=C2\C(=O)Nc3ccc(F)cc32)c1C [Sunitinib] | 3.076 | 3.556 | 3.758 |  |  | 
C[C@@H](CN1CC(=O)NC(=O)C1)N1CC(=O)NC(=O)C1 [Dexrazoxane] | 8.753 | 8.317 | 8.868 |  |  | 
CC(=O)Nc1cccc(-n2c(=O)n(C3CC3)c(=O)c3c(Nc4ccc(I)cc4F)n(C)c(=O)c(C)c32)c1 [Trametinib] | 6.641 | 7.726 | 8.533 |  |  | 
